Data on two compounds can be found in paper PMC11428593 (Antibiotics, 2024).

One test concerns USA300LAC cells. The experiment in a line: Propidium iodide uptake assay (membrane damage). It counts as cell-based, Staphylococcus aureus. The text has this:
The alkyl pyridinol derivates synthesized in this study are characterized by high lipophilicity. To determine whether and to what extent these compounds incorporate into and disrupt the phospholipid bilayer of the S. aureus cell envelope, we performed a propidium iodide (PI) uptake assay. Given the membrane-impermeable nature of PI, the fluorophore can be used to assess membrane disruption in cells by measuring its non-specific interaction with DNA, which leads to enhanced fluorescence. […] The extent of membrane damage caused by JC-01-074 occurred in a dose-dependent manner.
Figure 4 JC-01-074 causes significant membrane damage in S. aureus. Membrane damage was evaluated via propidium iodide (PI) staining. […] Treatment of USA300LAC with 2.5% DMSO, 4 µg/mL vancomycin, and 0.25% SDS were included as negative and positive controls, respectively. Cells were collected, washed, resuspended in PBS, and stained with 1 µM PI. PI fluorescence was measured (exc./em. wavelengths: 535/615 nm) and normalized to OD600nm. One-way ANOVA, Dunnett’s multiple-comparison test (* p < 0.05, **** p < 0.0001); (n = 3, ±S.D.).
The plasma membrane integrity was determined using the Propidium Iodide Uptake assay, as previously described. Briefly, the overnight cultures of USA300LAC were diluted into fresh TSB media, grown to an early log phase at 37 °C and 300 rpm, and treated with either DMSO, an alkyl pyridinol derivate, vancomycin, or SDS at the indicated concentrations for 1 h. Following two washing steps, the cells were then resuspended in phosphate-buffered saline (PBS), pH = 7.4, and subsequently stained with 1 µM propidium iodide (PI). The PI fluorescence intensity was determined at an excitation wavelength of 535 nm and an emission wavelength of 615 nm.

The subject of a further test is S. aureus ATCC 25923. The test can be described thus: MIC by broth microdilution (CLSI). The conditions noted are these: Staphylococcus aureus, ATCC25923, MHB, 37 °C, 16 h. The test is classed as cell-based. An excerpt:
(§1) To assess the impact of the nitrogen position in our newly synthesized anaephene derivates, we analyzed their antimicrobial activities against various S. aureus strains, including ATCC 25,923 and the two methicillin-resistant S. aureus (MRSA) strains ATCC 33,591 and ATCC BAA-44. […] We determined the minimum inhibitory concentrations (MIC) of each of our compounds against the different bacterial strains by broth microdilution following the CLSI guidelines. As expected, all five compounds tested were completely ineffective against the Gram-negative P. aeruginosa strain ATCC 27,853 (Table 1).
(§2) The MIC values of the alkyl pyridinol derivatives against the S. aureus strain ATCC 25923, MRSA strains ATCC 33591, ATCC BAA-44, and USA300LAC, as well as the P. aeruginosa strain ATCC 27853, were determined by following the CLSI guidelines for the broth microdilution antibiotic sensitivity testing protocol. In brief, the overnight cultures were diluted into Mueller Hinton Broth (MHB) to a final inoculum concentration of 5 × 10^5 CFU/mL (O.D600nm = 0.00001) and dispensed into a 96-well polystyrene plate (Alkali Scientific, Fort Lauderdale, FL, USA). Alkyl pyridine compounds were diluted into inoculated MHB to the indicated concentrations from stock solutions that would allow for DMSO concentrations below 5%, resulting in a total volume of 200 μL per well. The plates were subsequently incubated at 37 °C for 16 h at 300 rpm. The MIC values, which are defined as the lowest compound concentration that inhibited growth, were determined from three biological replicates.

For another test, the system named is MRSA ATCC BAA-44. The experiment in a line: MIC by broth microdilution (CLSI). The test is classed as cell-based. The conditions noted are these: Staphylococcus aureus, MHB, 37 °C, 16 h.
From the text: as §1, §2

In a further test the test system is MRSA ATCC 33591. The experiment in a line: MIC by broth microdilution (CLSI). The conditions noted are these: Staphylococcus aureus, MHB, 37 °C, 16 h. The test is classed as cell-based.
From the text: as §1, §2
In general terms: Dilution methods test growth across graded concentrations, often in twofold steps.

Another test relates to P. aeruginosa ATCC 27853. The test can be described thus: MIC by broth microdilution (CLSI). The test is classed as cell-based. The conditions noted are these: Pseudomonas aeruginosa, ATCC27853, MHB, 37 °C, 16 h.
From the text: as §1, §2

A further test deals with MRSA USA300LAC. The experiment in a line: Minimal bactericidal concentration (MBC). It counts as cell-based, Staphylococcus aureus. The conditions noted are these: for MBC: Staphylococcus aureus, MRSA USA300LAC, concentration at which no CFUs were observed; for bactericidal or bacteriostatic effect: USA300LAC, in words. The protocol:
In brief, 10 µL of each culture was serially diluted and plated onto prewarmed LB agar and incubated overnight at 37 °C under static conditions to observe the colony-forming units (CFUs). The concentration at which no CFUs were observed was recorded as the MBC.

Test [1] has as its system S. aureus strain USA300LAC. The test can be described thus: Growth curve-based assay of exponentially growing cells. The test is classed as cell-based, Staphylococcus aureus. The procedure:
Considering the divergent antimicrobial effects of our new compounds, we proceeded to assess the impact of JC-01-072 and JC-01-074 on the growth of exponentially growing USA300LAC cells. We performed growth-curve-based assays of the USA300LAC cultures that were either left untreated or treated with 4–16 μg/mL of the alkyl pyridinol compound once they reached the mid-log phase (OD600nm~0.2–0.3).
Figure 2 Impact of alkyl pyridinol exposure on exponentially growing S. aureus. An overnight culture of the S. aureus strain USA300LAC was diluted into fresh TSB and grown to mid-exponential phase (OD600nm = 0.2–0.3) prior to treatment with 4–16 µg/mL JC-01-072 (A) and JC-01-074 (B). Optical densities were measured at 600 nm at 10 min intervals for 16–18 h (n = 3, ±S.D.).
The overnight USA300LAC cultures were diluted into fresh TSB media to an O.D.600nm = 0.001 and incubated at 37 °C under shaking conditions (300 rpm) until an O.D.600nm of 0.2–0.3 (early log phase) was reached. The cultures were subsequently transferred to a 96-well polystyrene plate (Alkali Scientific, Fort Lauderdale, FL, USA), following which DMSO (control) or alkyl pyridine compounds were added at the indicated final concentrations. The cells were then incubated at 37 °C for 16 h at 300 rpm, and the O.D.600nm measurements were taken every 10 min for 16 h in a Tecan Infinite 200 plate reader (Tecan, Morgan Hill, CA, USA).

Another test relates to S. aureus/MRSA strains. The test can be described thus: MIC by broth microdilution, S. aureus/MRSA strains. The test is classed as cell-based, Staphylococcus aureus. The conditions noted are these: S. aureus/MRSA strains tested, strain not singled out.
From the text: as §1, §2

[2] abbreviates: Staphylococcus aureus, MRSA, read-out: MIC.

Each structure is given as a SMILES string. ≈ marks a conversion by molar mass, not a printed value. Entries after “also recorded” stand apart in the source; their conditions may differ. Read-outs that look alike come from different tables or passages of the source.

The MIC is the least concentration at which growth counts as inhibited. Broadly, the MBC is the lowest tested concentration that kills the bacteria rather than only halting them. Low readings indicate more potent killing, high ones less potent killing. As for `CCCCCCCCCC#Cc1cncc(O)c1` [JC-01-072], in the test on USA300LAC cells (up to 2× MIC, 1 h exposure), the “changes in PI intensity” value was “minimal changes”. For the same compound, the MIC in the test on S. aureus ATCC 25923 is 4 µg/mL (≈ 16.3 µM); against MRSA ATCC BAA-44, 4 µg/mL (≈ 16.3 µM); against MRSA ATCC 33591, 4 µg/mL (≈ 16.3 µM); in the test with P. aeruginosa ATCC 27853 it was more than 128 µg/mL; against S. aureus/MRSA strains it was 4 to 8 µg/mL; in the test with S. aureus/MRSA strains (setting [2]), 4 µg/mL (≈ 16.3 µM). This compound also displayed an MBC in the test on MRSA USA300LAC of more than 128 µg/mL. In addition, the “bactericidal or bacteriostatic effect” value with MRSA USA300LAC is reported as “bacteriostatic; also recorded: no significant killing”. In addition, the “effect on growth of mid-log USA300LAC cells” value in test [1] (4–16 μg/mL, added at OD600nm ~0.2–0.3) is “little to no effects”.

In the case of `CCCCCCCCCC#Cc1cccc(O)n1` [JC-01-074], the “PI fluorescence compared to DMSO-treated control” value in the test on USA300LAC cells (1 h treatment at MIC ([…] µg/mL)) is given as “about five-fold higher PI fluorescence”. For the same compound, the MIC against S. aureus ATCC 25923 is 16 µg/mL (≈ 65.2 µM); in the test with MRSA ATCC BAA-44, 16 µg/mL (≈ 65.2 µM); against MRSA ATCC 33591 it was 16 µg/mL (≈ 65.2 µM); with P. aeruginosa ATCC 27853, more than 128 µg/mL; in the test with S. aureus/MRSA strains (setting [2]), 16 µg/mL (≈ 65.2 µM). Also, in the test with MRSA USA300LAC, the MBC was 16 µg/mL (≈ 65.2 µM). For the same compound, the “bactericidal or bacteriostatic effect” value in the test with MRSA USA300LAC was “bactericidal”. This compound registered a delay of growth in test [1] (0.5× MIC, mid-log USA300LAC) of 6 to 8 h. For the same compound, in test [1] (1× MIC, mid-log USA300LAC), the “effect on growth at 1× MIC” value is recorded as “total growth arrest”.
